For orientation: IC50 means the concentration that gives 50% inhibition.

Active and inactive are the calls of the source. The rule behind the calls is not given here.

The values that follow come from ChEMBL document CHEMBL1154699, “Synthesis of aryl phosphates based on pyrimidine and triazine scaffolds” (Eur J Med Chem, 2010).

The target in experiment [1] is T1, Growth factor receptor-bound protein 2 (Homo sapiens, UniProt P62993). Nature of the experiment: Displacement of biotin-Ahx-PSpYVNVQN peptide from GST fused Grb2 SH2 domain by ELISA.
Experiment [2] concerns the target T1, Growth factor receptor-bound protein 2. Nature of the experiment: Inhibition of Grb2 by ELISA. Background: An ELISA detects its analyte on a solid surface through an enzyme-linked reagent.
Target sequence in this assay (P62993 whole entry, the tested form may be a part): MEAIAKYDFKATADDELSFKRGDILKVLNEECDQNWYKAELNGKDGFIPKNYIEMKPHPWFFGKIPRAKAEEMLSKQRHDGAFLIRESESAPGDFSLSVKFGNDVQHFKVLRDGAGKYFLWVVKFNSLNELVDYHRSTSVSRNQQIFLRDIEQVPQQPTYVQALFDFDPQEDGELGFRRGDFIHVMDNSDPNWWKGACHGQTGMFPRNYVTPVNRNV

Regarding `NC(=O)CNc1nc(Nc2ccc(OP(=O)(O)O)cc2)nc(-c2cccc(Oc3ccc(OP(=O)(O)O)cc3)c2)n1`, the result in experiment [1] was inactive. Take `Cc1cc(-c2cccc(Oc3ccc(OP(=O)(O)O)cc3)c2)nc(Nc2ccc(-c3nn[nH]n3)cc2)n1`: in experiment [1], the outcome was inactive. In turn, `NC(=O)CNc1nc(Nc2ccc(OP(=O)(O)O)cc2)nc(-c2ccccc2Oc2ccc(OP(=O)(O)O)cc2)n1` came in with an IC50 in experiment [1] of 265 µM.

In turn, `Cc1ccc(OC(C)(C)C(=O)N[C@@H](Cc2ccc(OP(=O)(O)O)cc2)C(=O)N[C@@](C)(Cc2ccc(OP(=O)(O)O)cc2)C(=O)N[C@@H](CC(N)=O)C(N)=O)c(/N=N/c2ccccc2)c1` showed an IC50 in experiment [2] of 0.011 µM.
